Source: patent EP0377967A2, “9-Aza-3-(oxa/thia)-bicyclo[3,2,1]nonane derivatives, process and intermediates for their preparation and pharmaceutical compositions containing them” (BEECHAM GROUP PLC, priority 1988, dated 1990)

Test system: von Bezold-Jarisch reflex evoked by 5-HT
Assay: Antagonism of the von Bezold-Jarisch reflex
Type: in vivo
Details: anaesthetised rat; dose of 1µg/kg i.v.
Procedure: The compounds were evaluated for antagonism of the von Bezold-Jarisch reflex evoked by 5-HT in the anaesthetised rat according to the following method:
Male rats 250-350g, were anaesthetised with urethane (1.25g/kg intraperitoneally) and blood pressure and heart rate recorded as described by Fozard J.R. et al., J. Cardiovasc. Pharmacol. 2, 229-245 (1980). A submaximal dose of 5-HT (usually 6µg/kg) was given repeatedly by the intravenous route and changes in heart rate quantified. Compounds were given intravenously and the concentration required to reduce the 5-HT-evoked response to 50% of the control response (ED₅₀) was then determined.

Compound	activity (antagonism of the von Bezold-Jarisch reflex)
CN1C2COCC1CC(NC(=O)c1nn(C)c3ccccc13)C2 (stereo not drawn) [Example E4, endo-N-(9-Methyl-9-aza-3-oxabicyclo[3.3.1]nonan-7-yl)-1-methyl-1H-indazol-3-carboxamide]	active
CN1C2COCC1CC(NC(=O)N1CC(C)(C)c3ccccc31)C2 (stereo not drawn) [Example E5, endo-N-(9-Methyl-9-aza-3-oxabicyclo[3.3.1]nonan-7-yl)-3,3-dimethyl-1-indoline carboxamide]	active
COc1ccccc1NC(=O)NC1CC2COCC(C1)N2C (stereo not drawn) [Example E3, endo-N-(9-Methyl-9-aza-3-oxabicyclo[3.3.1]nonan-7-yl)-N′-(2-methoxyphenyl)urea]	active
